Laboratory results: ChEMBL document CHEMBL5385907, “Proline-Hinged α-Helical Peptides Sensitize Gram-Positive Antibiotics, Expanding Their Physicochemical Properties to Be Used as Gram-Negative Antibiotics” (J Med Chem, 2024)
Converted amounts (≈) assume the structure as drawn. Residues, ends and D or L forms follow the SMILES beside them.

Key:
Escherichia coli = test: Antibacterial activity against Escherichia coli ATCC 25922 assessed as inhibition of bacterial growth incubated for 18 hrs by two fold serial dilution assay; format: functional
Acinetobacter baumannii = test: Antibacterial activity against Acinetobacter baumannii ATCC 17978 assessed as inhibition of bacterial growth incubated for 18 hrs by two fold serial dilution assay; format: functional
Klebsiella pneumoniae = test: Antibacterial activity against Klebsiella pneumoniae ATCC 700603 assessed as inhibition of bacterial growth incubated for 18 hrs by two fold serial dilution assay; format: functional
[1] = Hemolytic activity in human blood assessed as hemolysis incubated for 6 hrs by microplate reader analysis; format: toxicity, tissue-based
[2] = Hydrophobicity of the compound assessed as retention time by reversed-phase HPLC analysis; format: physicochemical

Row | SMILES | MIC (Escherichia coli) [µM] | MIC (Acinetobacter baumannii) [µM] | MIC (Klebsiella pneumoniae) [µM] | MHC10 [1] [µM] | Retention_time [2] [min]
1 | CCCC(=O)N[C@@H](CC(N)=O)C(=O)N[C@@H](Cc1c[nH]cn1)C(=O)N[C@@H](CCCCN)C(=O)N[C@@H](CCCCN)C(=O)N[C@@H](C)C(=O)N[C@@H](CC(C)C)C(=O)N[C@@H](CCCCN)C(=O)N[C@@H](CC(C)C)C(=O)N[C@@H](C)C(=O)N[C@@H](CCCCN)C(=O)N[C@@H](CCCCN)C(=O)N1CCC[C@H]1C(=O)N[C@@H](CC(C)C)C(=O)N[C@@H](CCCCN)C(=O)N[C@@H](CC(C)C)C(=O)N[C@@H](CC(C)C)C(=O)N[C@@H](CCCCN)C(=O)N[C@@H](CS)C(N)=O (HELM PEPTIDE1{[CCCC(=O)[*:2]].N.H.K.K.A.L.K.L.A.K.K.P.L.K.L.L.K.C.[am]}$$$$V2.0) | > 80 | > 80 | > 80 | > 160 | 16.1
2 | CCCCCC(=O)N[C@@H](CCCCN)C(=O)N[C@@H](CCCCN)C(=O)N[C@@H](C)C(=O)N[C@@H](CC(C)C)C(=O)N[C@@H](CCCCN)C(=O)N[C@@H](CC(C)C)C(=O)N[C@@H](C)C(=O)N[C@@H](CCCCN)C(=O)N[C@@H](CCCCN)C(=O)N1CCC[C@H]1C(=O)N[C@@H](CC(C)C)C(=O)N[C@@H](CCCCN)C(=O)N[C@@H](CC(C)C)C(=O)N[C@@H](CC(C)C)C(=O)N[C@@H](CCCCN)C(N)=O (HELM PEPTIDE1{[CCCCCC(=O)[*:2]].K.K.A.L.K.L.A.K.K.P.L.K.L.L.K.[am]}$$$$V2.0) | > 80 | 80 (≈ 145 µg/mL) | > 80 | > 160 | 17.1
3 | CCCCCCCCCC(=O)N[C@@H](CCCCN)C(=O)N[C@@H](CCCCN)C(=O)N[C@@H](C)C(=O)N[C@@H](CC(C)C)C(=O)N[C@@H](CCCCN)C(=O)N[C@@H](CC(C)C)C(=O)N[C@@H](C)C(=O)N[C@@H](CCCCN)C(=O)N[C@@H](CCCCN)C(=O)N1CCC[C@H]1C(=O)N[C@@H](CC(C)C)C(=O)N[C@@H](CCCCN)C(=O)N[C@@H](CC(C)C)C(=O)N[C@@H](CC(C)C)C(=O)N[C@@H](CCCCN)C(N)=O (HELM PEPTIDE1{[CCCCCCCCCC(=O)[*:2]].K.K.A.L.K.L.A.K.K.P.L.K.L.L.K.[am]}$$$$V2.0) | 40 (≈ 74.9 µg/mL) | 5 (≈ 9.37 µg/mL) | > 80 | > 160 | 19.4
4 | CCCCCCCCCCCC(=O)N[C@@H](CCCCN)C(=O)N[C@@H](CCCCN)C(=O)N[C@@H](C)C(=O)N[C@@H](CC(C)C)C(=O)N[C@@H](CCCCN)C(=O)N[C@@H](CC(C)C)C(=O)N[C@@H](C)C(=O)N[C@@H](CCCCN)C(=O)N[C@@H](CCCCN)C(=O)N1CCC[C@H]1C(=O)N[C@@H](CC(C)C)C(=O)N[C@@H](CCCCN)C(=O)N[C@@H](CC(C)C)C(=O)N[C@@H](CC(C)C)C(=O)N[C@@H](CCCCN)C(N)=O (HELM PEPTIDE1{[CCCCCCCCCCCC(=O)[*:2]].K.K.A.L.K.L.A.K.K.P.L.K.L.L.K.[am]}$$$$V2.0) | 10 (≈ 19 µg/mL) | 2.5 (≈ 4.75 µg/mL) | 80 (≈ 152 µg/mL) | 160 | 20.4
5 | CCCCCCCCCCCCCC(=O)N[C@@H](CCCCN)C(=O)N[C@@H](CCCCN)C(=O)N[C@@H](C)C(=O)N[C@@H](CC(C)C)C(=O)N[C@@H](CCCCN)C(=O)N[C@@H](CC(C)C)C(=O)N[C@@H](C)C(=O)N[C@@H](CCCCN)C(=O)N[C@@H](CCCCN)C(=O)N1CCC[C@H]1C(=O)N[C@@H](CC(C)C)C(=O)N[C@@H](CCCCN)C(=O)N[C@@H](CC(C)C)C(=O)N[C@@H](CC(C)C)C(=O)N[C@@H](CCCCN)C(N)=O (HELM PEPTIDE1{[CCCCCCCCCCCCCC(=O)[*:2]].K.K.A.L.K.L.A.K.K.P.L.K.L.L.K.[am]}$$$$V2.0) | 5 (≈ 9.65 µg/mL) | 1.3 (≈ 2.51 µg/mL) | 20 (≈ 38.6 µg/mL) | 53 | 21.7
6 | NCC[C@H](O)C(=O)N[C@@H]1C[C@H](N)[C@@H](O[C@H]2O[C@H](CN)[C@@H](O)[C@H](O)[C@H]2O)[C@H](O)[C@H]1O[C@H]1O[C@H](CO)[C@@H](O)[C@H](N)[C@H]1O [AMIKACIN] | 5 (≈ 2.93 µg/mL) | 2.5 (≈ 1.46 µg/mL) | 2.5 (≈ 1.46 µg/mL) |  | 
